The values that follow come from patent publication US9725449B2, “Tricyclic compounds as anticancer agents” (BRISTOL-MYERS SQUIBB COMPANY, priority 2015, dated 2017).

Structures are written as SMILES. Bounds are passed on as bounds.

The target in the test is BRD4 (Homo sapiens, UniProt O60885). As to the kind of experiment: Time resolved fluorescence resonance energy transfer (TR-FRET) binding assay, bromodomain BRD4. The conditions noted are these: one of the FRET assays described; read-out: FRET BRD4 IC50. In general terms: TR-FRET usually uses a lanthanide donor and a delayed reading to cut background.
Broadly, the IC50 is the concentration that inhibits the measured activity by half. Regarding `[2H]C([2H])([2H])Oc1ncc(S(C)(=O)=O)c2c1c1ncc(-c3c(C)noc3C([2H])([2H])[2H])cc1n2[C@H](c1ccc(F)cc1)C1CCOCC1` [Example 55, 8-[(S)-(4-Fluorophenyl)(oxan-4-yl)methyl]-10-methanesulfonyl-13-(^2H3)methoxy-5-[5-(^2H3)methyl-3-methyl-1,2-oxazol-4-yl]-3,8,12-triazatricyclo[7.4.0.0^2,^7]trideca-1(13),2(7),3,5,9,11-hexaene], the IC50 was less than 1 nM.

Regarding `Cc1nnn(C)c1-c1cnc2c3cnc(N4CCN(C5CC5)CC4)nc3n([C@H](c3ccccc3)C3CCOCC3)c2c1` [Example 157, 11-(4-Cyclopropylpiperazin-1-yl)-5-(dimethyl-1H-1,2,3-triazol-5-yl)-8-[(S)-oxan-4-yl(phenyl)methyl]-3,8,10,12-tetraazatricyclo[7.4.0.0^2,^7]trideca-1(9),2(7),3,5,10,12-hexaene], the half-maximal inhibitory concentration (IC50) was less than 10 nM.

On to `Cc1nnn(C)c1-c1cnc2c3ccc(N4CCS(=O)(=O)CC4C)nc3n([C@H](c3ccccc3)C3CCOCC3)c2c1` (stereo partly drawn) [Example 210, 4-[5-(Dimethyl-1H-1,2,3-triazol-5-yl)-8-[(S)-oxan-4-yl(phenyl)methyl]-3,8,10-triazatricyclo[7.4.0.0^2,^7]trideca-1(9),2(7),3,5,10,12-hexaen-11-yl]-3-methyl-1λ^6,4-thiomorpholine-1,1-dione], for which the 50% inhibitory concentration (IC50) was less than 10 nM.

Consider `[2H]C([2H])([2H])c1nnn(C)c1-c1cnc2c3ccc(C4=CCS(=O)(=O)CC4)nc3n([C@H](c3ccccc3)C3CCOCC3)c2c1` [Example 204, 4-{5-[4-(^2H3)Methyl-1-methyl-1H-1,2,3-triazol-5-yl]-8-[(S)-oxan-4-yl(phenyl)methyl]-3,8,10-triazatricyclo[7.4.0.0^2,^7]trideca-1(9),2(7),3,5,10,12-hexaen-11-yl}-3,6-dihydro-2H-1λ^6-thiopyran-1,1-dione], for which the IC50 is less than 10 nM.

For the compound `CC(=O)c1cc2c(cn1)c1ncc(-c3c(C)noc3C)cc1n2[C@H](c1ccc(F)cc1)C1CCOCC1` [Example 330, 1-[5-(Dimethyl-1,2-oxazol-4-yl)-8-[(S)-(4-fluorophenyl)(oxan-4-yl)methyl]-3,8,12-triazatricyclo[7.4.0.0^2,^7]trideca-1(9),2(7),3,5,10,12-hexaen-11-yl]ethan-1-one], the IC50 is less than 10 nM.

For the compound `[2H]C([2H])([2H])c1nnn(C)c1-c1cnc2c3c(OC)ncc(C(C)(C)O)c3n([C@H](c3ccccc3)C3CCOCC3)c2c1` [Example 138, 2-{13-Methoxy-5-[4-(^2H3)methyl-1-methyl-1H-1,2,3-triazol-5-yl]-8-[(S)-oxan-4-yl(phenyl)methyl]-3,8,12-triazatricyclo[7.4.0.0^2,^7]trideca-1(13),2(7),3,5,9,11-hexaen-10-yl}propan-2-ol], the IC50 is less than 10 nM.

Regarding `CNCCN(C)c1ccc2c3ncc(-c4c(OC)nnn4C)cc3n([C@H](c3ccccc3F)C3CCOCC3)c2n1` [Example 255, 8-[(S)-(2-Fluorophenyl)(oxan-4-yl)methyl]-5-(4-methoxy-1-methyl-1H-1,2,3-triazol-5-yl)-N-methyl-N-[2-(methylamino)ethyl]-3,8,10-triazatricyclo[7.4.0.0^2,^7]trideca-1(13),2(7),3,5,9,11-hexaen-11-amine], the IC50 was less than 10 nM.

Turning to `[2H]C([2H])([2H])c1nnn(C)c1-c1cnc2c3ccc(Cl)nc3n([C@H](c3ccccc3F)C3CCOCC3)c2c1` [Example 233, 11-Chloro-8-[(S)-(2-fluorophenyl)(oxan-4-yl)methyl]-5-[4-(^2H3)methyl-1-methyl-1H-1,2,3-triazol-5-yl]-3,8,10-triazatricyclo[7.4.0.0^2,^7]trideca-1(13),2(7),3,5,9,11-hexaene], the IC50 was less than 10 nM.

`[2H]C([2H])([2H])N1CCN(c2ccc3c4ncc(-c5c(C)nnn5C)cc4n([C@H](c4ccccc4F)C4CCOCC4)c3n2)CC1` [Example 250, 5-(Dimethyl-1H-1,2,3-triazol-5-yl)-8-[(S)-(2-fluorophenyl)(oxan-4-yl)methyl]-11-[4-(^2H3)methylpiperazin-1-yl]-3,8,10-triazatricyclo[7.4.0.0^2,^7]trideca-1(13),2(7),3,5,9,11-hexaene]: the half-maximal inhibitory concentration (IC50) is less than 10 nM.

As for `Cc1nnn(C)c1-c1cnc2c3ccnc(NCCO)c3n([C@H](c3ccccc3)C3CCOCC3)c2c1` [Example 11, 2-{[5-(Dimethyl-1H-1,2,3-triazol-5-yl)-8-[(S)-oxan-4-yl(phenyl)methyl]-3,8,11-triazatricyclo[7.4.0.0^2,^7]trideca-1(13),2(7),3,5,9,11-hexaen-10-yl]amino}ethan-1-ol], the IC50 was less than 10 nM.

As for `COc1nccc2c3ncc(-c4c(C)nnn4C)cc3n(C(c3cccc(F)c3F)C3CCOCC3)c12` (single isomer, unassigned) [Example 22, 8-[(2,3-Difluorophenyl)(oxan-4-yl)methyl]-5-(dimethyl-1H-1,2,3-triazol-5-yl)-10-methoxy-3,8,11-triazatricyclo[7.4.0.0^2,^7]trideca-1(13),2(7),3,5,9,11-hexaene], the IC50 was less than 10 nM.

With `[2H]C([2H])([2H])c1nnn(C)c1-c1cnc2c3c(OC)nc(C(C)=O)cc3n([C@@H](c3ncccc3F)C3CCOCC3)c2c1` [Example 310, 1-{8-[(R)-(3-Fluoropyridin-2-yl)(oxan-4-yl)methyl]-13-methoxy-5-[4-(^2H3)methyl-1-methyl-1H-1,2,3-triazol-5-yl]-3,8,12-triazatricyclo[7.4.0.0^2,^7]trideca-1(9),2(7),3,5,10,12-hexaen-11-yl}ethan-1-one], the IC50 is less than 10 nM.

`Cc1nnn(C)c1-c1cnc2c3c(O)nc(C(C)(C)O)cc3n([C@@H](c3ncccc3F)C3CCOCC3)c2c1` [Example 312, 8-[(R)-(3-Fluoropyridin-2-yl)(oxan-4-yl)methyl]-11-(2-hydroxypropan-2-yl)-5-[4-(^2H3)methyl-1-methyl-1H-1,2,3-triazol-5-yl]-3,8,12-triazatricyclo[7.4.0.0^2,^7]trideca-1(9),2(7),3,5,10,12-hexaen-13-ol]: the half-inhibitory concentration (IC50) is less than 10 nM.

For the compound `[2H]C([2H])([2H])c1nnn(C)c1-c1cnc2c3c(OC(C)C)ncc(S(C)(=O)=O)c3n(C(c3ncccc3F)C3CCOCC3)c2c1` (centres unmarked) [Example 70, 8-[(3-Fluoropyridin-2-yl)(oxan-4-yl)methyl]-10-methanesulfonyl-5-[4-(^2H3)methyl-1-methyl-1H-1,2,3-triazol-5-yl]-13-(propan-2-yloxy)-3,8,12-triazatricyclo[7.4.0.0^2,^7]trideca-1(13),2(7),3,5,9,11-hexaene], the IC50 is less than 1 nM.

For the compound `Cc1noc(C)c1-c1cnc2c3cnc(Cl)cc3n(C(c3ccc(Cl)cn3)C3CCOCC3)c2c1` (single isomer, unassigned) [Example 327], the half-inhibitory concentration (IC50) is less than 1500 nM.

As to `COc1ncc(S(C)(=O)=O)c2c1c1ncc(-c3c(C)nnn3C)cc1n2[C@H](c1ccccc1)C1CCOCC1` [Example 46, 5-(Dimethyl-1H-1,2,3-triazol-5-yl)-10-methanesulfonyl-13-methoxy-8-[(S)-oxan-4-yl(phenyl)methyl]-3,8,12-triazatricyclo[7.4.0.0^2,^7]trideca-1(13),2(7),3,5,9,11-hexaene], the IC50 was less than 10 nM.

On to `COc1nnn(C)c1-c1cnc2c3cnc(N4C[C@@H](C)S(=O)(=O)[C@H](C)C4)nc3n([C@H](c3ccccc3)C3CCOCC3)c2c1` [Example 158, (2R,6R)-4-[5-(4-Methoxy-1-methyl-1H-1,2,3-triazol-5-yl)-8-[(S)-oxan-4-yl(phenyl)methyl]-3,8,10,12-tetraazatricyclo[7.4.0.0^2,^7]trideca-1(9),2(7),3,5,10,12-hexaen-11-yl]-2,6-dimethyl-1λ^6,4-thiomorpholine-1,1-dione], for which the IC50 is less than 10 nM.

Turning to `[2H]C([2H])([2H])c1nnn(C)c1-c1cnc2c3ccncc3n([C@H](c3ccccc3)C3CCOCC3)c2c1` [Example 299, 5-[4-(^2H3)Methyl-1-methyl-1H-1,2,3-triazol-5-yl]-8-[(S)-oxan-4-yl(phenyl)methyl]-3,8,11-triazatricyclo[7.4.0.0^2,^7]trideca-1(9),2(7),3,5,10,12-hexaene], the IC50 was less than 1 nM.

For `[2H]C([2H])([2H])c1nnn(C)c1-c1cnc2c3c(O)ncc(S(C)(=O)=O)c3n([C@H](c3ccccc3)C3CCC(F)(F)CC3)c2c1` [Example 92, 8-[(S)-(4,4-Difluorocyclohexyl)(phenyl)methyl]-10-methanesulfonyl-5-[4-(^2H3)methyl-1-methyl-1H-1,2,3-triazol-5-yl]-3,8,12-triazatricyclo[7.4.0.0^2,^7]trideca-1(13),2(7),3,5,9,11-hexaen-13-ol], the IC50 is less than 10 nM.

Consider `Cc1noc(C)c1-c1cnc2c3cnc(C(C)(C)O)cc3n([C@H](c3ncccc3F)C3CCOCC3)c2c1` [Example 338], for which the half-maximal inhibitory concentration (IC50) is less than 10 nM.

`[2H]C([2H])([2H])N1CCN(c2ncc3c4ncc(-c5c(C)nnn5C)cc4n([C@H](c4ccccc4)C4CCOCC4)c3n2)CC1` [Example 156, 5-(Dimethyl-1H-1,2,3-triazol-5-yl)-11-[4-(^2H3)methylpiperazin-1-yl]-8-[(S)-oxan-4-yl(phenyl)methyl]-3,8,10,12-tetraazatricyclo[7.4.0.0^2,^7]trideca-1(9),2(7),3,5,10,12-hexaene]: the IC50 is less than 10 nM.

`[2H]C([2H])([2H])c1nnn(C)c1-c1cnc2c3ccc(N4CCN(C5CC5)CC4)nc3n([C@H](c3ccccc3)C3CCOCC3)c2c1` [Example 151, 11-(4-Cyclopropylpiperazin-1-yl)-5-[4-(^2H3)methyl-1-methyl-1H-1,2,3-triazol-5-yl]-8-[(S)-oxan-4-yl(phenyl)methyl]-3,8,10-triazatricyclo[7.4.0.0^2,^7]trideca-1(9),2(7),3,5,10,12-hexaene]: the IC50 was less than 10 nM.

With `CC(=O)c1ccc2c3ncc(-c4c(C)nnn4C)cc3n([C@H](c3ccccc3)C3CCOCC3)c2n1` [Example 171, 1-[5-(Dimethyl-1H-1,2,3-triazol-5-yl)-8-[(S)-oxan-4-yl(phenyl)methyl]-3,8,10-triazatricyclo[7.4.0.0^2,^7]trideca-1(9),2(7),3,5,10,12-hexaen-11-yl]ethan-1-one], the IC50 is less than 10 nM.
